In experiment [1] the target is MAPK14 (human) (UniProt Q16539). As to the kind of experiment: Inhibition of MAPK14 Kinase Activity by PHAS-I Assay. As to conditions: for inhibition: concentration not given here.
For experiment [2] the target is unchanged. As to the kind of experiment: Inhibition of LPS Stimulated TNF Production by U937 Cells. As to conditions: for inhibition: concentration not given here.

Chain of MAPK14 (human) (Q16539 whole entry, looked up): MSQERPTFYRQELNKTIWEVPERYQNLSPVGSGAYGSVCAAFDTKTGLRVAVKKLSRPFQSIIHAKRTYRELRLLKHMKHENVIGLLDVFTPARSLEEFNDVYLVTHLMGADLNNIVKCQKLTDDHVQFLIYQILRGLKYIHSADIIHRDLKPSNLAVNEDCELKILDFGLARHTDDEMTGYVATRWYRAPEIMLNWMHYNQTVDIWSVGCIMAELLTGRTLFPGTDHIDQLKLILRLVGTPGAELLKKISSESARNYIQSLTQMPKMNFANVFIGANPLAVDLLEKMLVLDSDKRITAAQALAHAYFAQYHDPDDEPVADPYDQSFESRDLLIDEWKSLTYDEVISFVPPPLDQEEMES

Consider `O=[N+]([O-])c1ccc(S(=O)(=O)NCc2[nH]nc(-c3ccc(F)cc3)c2-c2ccncc2)cc1`, for which the figures for the inhibition against MAPK14 (human) [1] and at MAPK14 (human) [2] were 47% and 2%, respectively.

For the compound `O=S(=O)(NCCc1[nH]nc(-c2ccc(F)cc2)c1-c1ccncc1)c1ccccc1F`, the figures for the inhibition at MAPK14 (human) [1] and at MAPK14 (human) [2] were 87% and 36%, respectively.

On MAPK14 (human) [1], `C[C@H](NC(=O)c1cc(F)cc(F)c1)c1[nH]nc(-c2ccc(F)cc2)c1-c1ccncc1` showed a half-maximal inhibitory concentration (IC50) of 62 nM. Moreover, the inhibition at MAPK14 (human) [2] amounted to 45%.

For `CCOC(=O)[C@H](Cc1ccccc1)NC(=O)Cn1nc(-c2ccc(F)cc2)c(-c2ccncc2)c1C`, the inhibition against MAPK14 (human) [1] was 77%; on MAPK14 (human) [2], 1%.

For the compound `O=S(=O)(NCCCc1[nH]nc(-c2ccc(F)cc2)c1-c1ccncc1)c1ccc(F)cc1`, the figures for the inhibition on MAPK14 (human) [1] and on MAPK14 (human) [2] were 78% and 62%, respectively.

For the compound `CCN(CC)C(=O)NCc1[nH]nc(-c2ccc(F)cc2)c1-c1ccncc1`, the IC50 against MAPK14 (human) [1] was 130 nM. The same compound showed an inhibition against MAPK14 (human) [2] of 40%.

Turning to `COC(=O)C(C)NC(=O)Cn1nc(-c2ccc(F)cc2)c(-c2ccncc2)c1C` (configuration not stated), the inhibition against MAPK14 (human) [1] stood at 44%; on MAPK14 (human) [2], 1%.

With `O=C(NCCc1[nH]nc(-c2ccc(F)cc2)c1-c1ccncc1)c1ccccc1I`, the inhibition stood at 65% against MAPK14 (human) [1] and 23% against MAPK14 (human) [2].

For `O=C(NCCc1[nH]nc(-c2ccc(F)cc2)c1-c1ccncc1)Nc1cccc(F)c1`, the inhibition on MAPK14 (human) [1] worked out at 72%; at MAPK14 (human) [2], 66%.

In the case of `Cc1c(-c2ccncc2)c(-c2ccc(F)cc2)nn1CC(=O)N1CCCCC1C[C@@H]1CCCN1C` (some centres not stated), the inhibition against MAPK14 (human) [1] came out at 42%; against MAPK14 (human) [2], 24%.

Turning to `O=C(NCCc1[nH]nc(-c2ccc(F)cc2)c1-c1ccncc1)Nc1ccccc1OC(F)(F)F`, the results for the inhibition against MAPK14 (human) [1] and on MAPK14 (human) [2] were 66% and 48%, respectively.

Compound `O=C(NCCCc1[nH]nc(-c2ccc(F)cc2)c1-c1ccncc1)NCCc1ccc(F)cc1` had an IC50 against MAPK14 (human) [1] of 19 nM. For the same compound, at MAPK14 (human) [2], the inhibition was 9%.

The compound `Cc1c(-c2ccncc2)c(-c2ccc(F)cc2)nn1CC(=O)N(C)CCN(C)C` gave an inhibition at MAPK14 (human) [1] of 62%. On MAPK14 (human) [2], the IC50 is > 10000 nM.

On to `CCOC(=O)NC(=O)NCc1[nH]nc(-c2ccc(F)cc2)c1-c1ccncc1`, for which the inhibition against MAPK14 (human) [1] was 51%; on MAPK14 (human) [2] it was 24%.

Regarding `C[C@@H](NC(=O)NCCCc1[nH]nc(-c2ccc(F)cc2)c1-c1ccncc1)c1ccccc1`, the inhibition turned out to be 65% at MAPK14 (human) [1] and 9% at MAPK14 (human) [2].

Turning to `O=C(NCCc1[nH]nc(-c2ccc(F)cc2)c1-c1ccncc1)Nc1cccc(Cl)c1Cl`, the figures for the inhibition against MAPK14 (human) [1] and against MAPK14 (human) [2] were 68% and 31%, respectively.

On to `Cc1c(-c2ccncc2)c(-c2ccc(F)cc2)nn1CC(=O)N(C)CCN1CCOCC1`, for which the inhibition at MAPK14 (human) [1] worked out at 32%; against MAPK14 (human) [2], 28%.

Take `COC(=O)[C@H](CSCc1ccccc1)NC(=O)Cn1nc(-c2ccc(F)cc2)c(-c2ccncc2)c1C`: the inhibition on MAPK14 (human) [1] turned out to be 84%. On MAPK14 (human) [2], the IC50 is > 10000 nM.

On to `COC(=O)[C@@H]1CCCN1C(=O)Cn1nc(-c2ccc(F)cc2)c(-c2ccncc2)c1C`, for which the inhibition on MAPK14 (human) [1] worked out at 60%; against MAPK14 (human) [2] it was 39%.

`COc1ccc(CC(=O)NCCc2[nH]nc(-c3ccc(F)cc3)c2-c2ccncc2)cc1OC`: the inhibition against MAPK14 (human) [1] came to 61%; on MAPK14 (human) [2] it was 24%.

`O=C(NCCc1[nH]nc(-c2ccc(F)cc2)c1-c1ccncc1)Nc1ccc(Cl)c(Cl)c1`: the inhibition is 79% against MAPK14 (human) [1] and 23% against MAPK14 (human) [2].

For the compound `O=C(NCCCc1[nH]nc(-c2ccc(F)cc2)c1-c1ccncc1)c1ccccc1C(F)(F)F`, the inhibition against MAPK14 (human) [1] turned out to be 65%; against MAPK14 (human) [2] it was 62%.

Turning to `CCOC(=O)c1cccc(NC(=O)NCCc2[nH]nc(-c3ccc(F)cc3)c2-c2ccncc2)c1`, the results for the inhibition on MAPK14 (human) [1] and at MAPK14 (human) [2] were 82% and 2%, respectively.

Turning to `CC(C)c1ccc(NC(=O)NCCc2[nH]nc(-c3ccc(F)cc3)c2-c2ccncc2)cc1`, the values for the inhibition against MAPK14 (human) [1] and against MAPK14 (human) [2] were 50% and 5%, respectively.

With `CC1(C)[C@H]2CC[C@@]1(CS(=O)(=O)NCCc1[nH]nc(-c3ccc(F)cc3)c1-c1ccncc1)C(=O)C2`, on MAPK14 (human) [1], the concentration for half-maximal inhibition (IC50) was < 100 nM. The compound also gave an inhibition against MAPK14 (human) [2] of 26%.

As for `CC(C)S(=O)(=O)NCCc1[nH]nc(-c2ccc(F)cc2)c1-c1ccncc1`, the figures for the inhibition against MAPK14 (human) [1] and at MAPK14 (human) [2] were 77% and 34%, respectively.

With `Cc1c(-c2ccncc2)c(-c2ccc(F)cc2)nn1CC(=O)N[C@@H](C)c1ccccc1`, the inhibition at MAPK14 (human) [1] was found to be 83%; at MAPK14 (human) [2], 46%.

For the compound `CCCCOc1ccc(NC(=O)NCc2[nH]nc(-c3ccc(F)cc3)c2-c2ccncc2)cc1`, the inhibition on MAPK14 (human) [1] came out at 42%; against MAPK14 (human) [2] it was 13%.

In turn, `COc1ccccc1NC(=O)NCCc1[nH]nc(-c2ccc(F)cc2)c1-c1ccncc1` had an inhibition on MAPK14 (human) [1] of 62%. For the same compound, the concentration for half-maximal inhibition (IC50) at MAPK14 (human) [2] was 520 nM.

Take `CCCCCc1cccc(C(C)NC(=O)Cn2nc(-c3ccc(F)cc3)c(-c3ccncc3)c2C)c1` (configuration not stated): the inhibition was 65% on MAPK14 (human) [1] and 25% against MAPK14 (human) [2].

On to `CCCCOc1ccc(NC(=O)NCCc2[nH]nc(-c3ccc(F)cc3)c2-c2ccncc2)cc1`, for which the inhibition at MAPK14 (human) [1] is 45%; on MAPK14 (human) [2], 27%.
